The values below come from patent US11591341B2 (ALIGOS THERAPEUTICS, INC., priority 2019, dated 2023).

pEC50: −log10 of the molar value.

The experiment concerns HBV. The experiment in a line: HBV-DNA Antiviral Assay Using HepG2.117 Cells (intracellular HBV DNA by qPCR). Type of experiment: cell-based, hepatitis B virus (genotype D). The settings on record: Hepatitis B virus, HepG2.117. A digest of the protocol:
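Endpoint: qPCR copy number of intracellular HBV DNA after 3-day compound exposure, with inhibition set relative to the 2% DMSO control. The cells were doxycycline-free HepG2.117 carrying a Tet-off genotype D genome, dosed at nine 4-fold dilutions. A duplicate plate gave ATP-based viability (CC50).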
On the technique in general: Real-time PCR tracks product formation cycle by cycle.
`COCCOc1ccc(-n2c(C(=O)NCc3ccccc3)c3n(c2=O)CCN(C(=O)c2ccc(Br)c(Cl)c2)C3)cc1` [Example 250, N-benzyl-7-(4-bromo-3-chloro-benzoyl)-2-[4-(2-methoxyethoxy)phenyl]-3-oxo-6,8-dihydro-5H-imidazo[1,5-a]pyrazine-1-carboxamide]: the pEC50 was 6.30 to 7.00.

Compound `CCc1cc(OC)ccc1CNC(=O)c1c2n(c(=O)n1-c1ccc(OC)cc1)CCN(C(=O)c1ccc(Br)c(Cl)c1)C2` [Example 251, 7-(4-bromo-3-chloro-benzoyl)-N-[(2-ethyl-4-methoxy-phenyl)methyl]-2-(4-methoxyphenyl)-3-oxo-6,8-dihydro-5H-imidazo[1,5-a]pyrazine-1-carboxamide] had a pEC50 of 6.30 to 7.00.

In the case of `COc1cc2occc2cc1CNC(=O)c1c2n(c(=O)n1-c1ccc(OC(C)C)cc1)CCN(C(=O)c1ccc(Br)c(Cl)c1)C2` [Example 255, 7-(4-bromo-3-chloro-benzoyl)-2-(4-isopropoxyphenyl)-N-[(6-methoxybenzofuran-5-yl)methyl]-3-oxo-6,8-dihydro-5H-imidazo[1,5-a]pyrazine-1-carboxamide], the pEC50 was 6.30 to 7.00.

Compound `Cc1cc(-n2c(C(=O)NCc3ccccc3)c3n(c2=O)CCN(C(=O)c2ccc(Br)c(Cl)c2)C3)ccc1C#N` [Example 257, N-benzyl-7-(4-bromo-3-chloro-benzoyl)-2-(4-cyano-3-methyl-phenyl)-3-oxo-6,8-dihydro-5H-imidazo[1,5-a]pyrazine-1-carboxamide] had a pEC50 of 5.30 to 6.30.

As for `COc1ccc(CNC(=O)c2c3n(c(=O)n2-c2ccc(OCC(F)(F)F)cc2)CCN(C(=O)c2ccc(Br)c(Cl)c2)C3)c(-n2cccn2)c1` [Example 258, 7-(4-bromo-3-chloro-benzoyl)-N-[(4-methoxy-2-pyrazol-1-yl-phenyl)methyl]-3-oxo-2-[4-(2,2,2-trifluroethoxy)phenyl]-6,8-dihydro-5H-imidazo[1,5-a]pyrazine-1-carboxamide], the negative logarithm of the EC50 (pEC50) was greater than 7.00.

Compound `COc1cccc(C)c1CNC(=O)c1c2n(c(=O)n1-c1ccc(OCC(F)(F)F)cc1)CCN(C(=O)c1ccc(Br)c(Cl)c1)C2` [Example 259, 7-(4-bromo-3-chloro-benzoyl)-N-[(2-methoxy-6-methyl-phenyl)methyl]-3-oxo-2-[4-(2,2,2-trifluoroethoxy)phenyl]-6,8-dihydro-5H-imidazo[1,5-a]pyrazine-1-carboxamide] showed a pEC50 of 6.30 to 7.00.

Regarding `O=C(NCc1ccccc1)c1c2n(c(=O)n1-c1ccc(OCC(F)F)cc1)CCN(C(=O)c1ccc(Br)c(Cl)c1)C2` [Example 260, N-benzyl-7-(4-bromo-3-chloro-benzoyl)-2-[4-(2,2-difluoroethoxy)phenyl]-3-oxo-6,8-dihydro-5H-imidazo[1,5-a]pyrazine-1-carboxamide], the pEC50 was 5.30 to 6.30.

Regarding `O=C(NCc1ccccc1-n1ccnc1)c1c2n(c(=O)n1-c1ccc(OCC(F)(F)F)cc1)CCN(C(=O)c1ccc(Br)c(Cl)c1)C2` [Example 263, 7-(4-bromo-3-chloro-benzoyl)-N-[(2-imidazol-1-ylphenyl)methyl]-3-oxo-2-[4-(2,2,2-trifluoroethoxy)phenyl]-6,8-dihydro-5H-imidazo[1,5-a]pyrazine-1-carboxamide], the pEC50 is 5.30 to 6.30.

In turn, `N#CCOc1ccc(-n2c(C(=O)NCc3ccccc3)c3n(c2=O)CCN(C(=O)c2ccc(Br)c(Cl)c2)C3)cc1` [Example 265, N-benzyl-7-(4-bromo-3-chloro-benozyl)-2-[4-(cyanomethoxy)phenyl]-3-oxo-6,8-dihydro-5H-imidazo[1,5-a]pyrazine-1-carboxamide] had a pEC50 of 5.30 to 6.30.

As for `COc1ccc(CNC(=O)c2c3n(c(=O)n2-c2ccc(OCC(F)(F)F)cc2)CCN(C(=O)c2ccc(Br)c(Cl)c2)C3)c(OC(F)F)c1` [Example 266], the negative-log EC50 (pEC50) was 6.30 to 7.00.

`O=C(NCc1ccccc1)c1c2n(c(=O)n1-c1ccc(-n3cccn3)cc1)CCN(C(=O)c1ccc(Br)c(Cl)c1)C2` [Example 271, N-benzyl-7-(4-bromo-3-chloro-benzoyl)-3-oxo-2-(4-pyrazol-1-ylphenyl)-6,8-dihydro-5H-imidazo[1,5-a]pyrazine-1-carboxamide]: the pEC50 is 6.30 to 7.00.

For the compound `CC(C)COc1ccc(-n2c(C(=O)NCc3ccccc3)c3n(c2=O)CCN(C(=O)c2ccc(Br)c(Cl)c2)C3)cc1` [Example 272, N-benzyl-7-(4-bromo-3-chloro-benzoyl)-2-(4-isobutoxyphenyl)-3-oxo-6,8-dihydro-5H-imidazo[1,5-a]pyrazine-1-carboxamide], the pEC50 is 6.30 to 7.00.

`COc1ccc(-n2c(-c3ccccn3)c3n(c2=O)CCN(C(=O)c2ccc(Br)c(Cl)c2)C3)cc1` [Example 275, 7-(4-bromo-3-chloro-benzoyl)-2-(4-methoxyphenyl)-1-(2-pyridyl)-6,8-dihydro-5H-imidazo[1,5-a]pyrazin-3-one]: the pEC50 was less than 5.30.

With `Cc1coc2ccc(-n3c(C(=O)NCc4ccccc4)c4n(c3=O)CCN(C(=O)c3ccc(Br)c(Cl)c3)C4)cc12` [Example 276], the negative logarithm of the EC50 (pEC50) was 6.30 to 7.00.

`O=C(NCc1cccc2nccnc12)c1c2n(c(=O)n1-c1ccc(OCC(F)(F)F)cc1)CCN(C(=O)c1ccc(Br)c(Cl)c1)C2` [Example 277, 7-(4-bromo-3-chloro-benzoyl)-3-oxo-N-(quinoxalin-5-ylmethyl)-2-[4-(2,22,- trifluoroethoxy)phenyl]-6,8-dihydro-5H-imidazo[1,5-a]pyrazine-1-carboxamide] had a pEC50 greater than 7.00.

As for `O=C(NCc1ccccc1)c1c2n(c(=O)n1-c1ccc(N3CCOCC3)cc1)CCN(C(=O)c1ccc(Br)c(Cl)c1)C2` [Example 278, N-benzyl-7-(4-bromo-3-chloro-benzoyl)-2-(4-morpholinophenyl)-3-oxo-6,8-dihydro-5H-imidazo[1,5-a]pyrazine-1-carboxamide], the pEC50 was 6.30 to 7.00.

`O=C(NCc1ccc(OC(F)(F)F)cc1F)c1c2n(c(=O)n1-c1ccc(OCC(F)(F)F)cc1)CCN(C(=O)c1ccc(Br)c(Cl)c1)C2` [Example 284, 7-(4-bromo-3-chloro-benzoyl)-N-[[2-fluoro-4-(trifluoromethoxy)phenyl]methyl]-3-oxo-2-[4-(2,2,2-trifluoroethoxy)phenyl]-6,8-dihydro-5H-imidazo[1,5-a]pyrazine-1-carboxamide] showed a pEC50 of 5.30 to 6.30.

Regarding `NC(=O)COc1ccc(-n2c(C(=O)NCc3ccccc3)c3n(c2=O)CCN(C(=O)c2ccc(Br)c(Cl)c2)C3)cc1` [Example 285, 2-[4-(2-amino-2-oxo-ethoxy)phenyl]-N-benzyl-7-(4-bromo-3-chloro-benzoyl)-3-oxo-6,8-dihydro-5H-imidazo[1,5-a]pyrazine-1-carboxamide], the pEC50 is 5.30 to 6.30.

Regarding `O=C(NCc1ccc(OC(F)F)cc1F)c1c2n(c(=O)n1-c1ccc(OCC(F)(F)F)cc1)CCN(C(=O)c1ccc(Br)c(Cl)c1)C2` [Example 286, 7-(4-bromo-3-chloro-benzoyl)-N-[[4-(difluoromethoxy)-2-fluoro-phenyl]methyl]-3-oxo-2-[4-(2,2,2-trifluoroethoxy)phenyl]-6,8-dihydro-5H-imidazo[1,5-a]pyrazine-1-carboxamide], the pEC50 is 5.30 to 6.30.

`N#Cc1ccc(CNC(=O)c2c3n(c(=O)n2-c2ccc(OCC(F)(F)F)cc2)CCN(C(=O)c2ccc(Br)c(Cl)c2)C3)c(F)c1` [Example 287, 7-(4-bromo-3-chloro-benzoyl)-N-[(4-cyano-2-fluoro-phenyl)methyl]-3-oxo-2-[4-(2,2,2-trifluoroethoxy)phenyl]-6,8-dihydro-5H-imidazo[1,5-a]pyrazine-1-carboxamide]: the negative-log EC50 (pEC50) is 5.30 to 6.30.

With `CC(C)Oc1ccc(-n2c(C(=O)NCc3ccc(C(=O)O)cc3)c3n(c2=O)CCN(C(=O)c2ccc(Br)c(Cl)c2)C3)cc1` [Example 294, 4-[[[7-(4-bromo-3-chloro-benzoyl)-2-(4-isopropoxyphenyl)-3-oxo-6,8-dihydro-5H-imidazo[1,5-a]pyrazine-1-carbonyl]amino]methyl]benzoic acid], the pEC50 was less than 5.30.

In turn, `Cc1cc2occc2cc1CNC(=O)c1c2n(c(=O)n1-c1ccc(OCC(F)(F)F)cc1)CCN(C(=O)c1ccc(Br)c(Cl)c1)C2` [Example 295, 7-(4-bromo-3-chloro-benzoyl)-N-[(6-methylbenzofuran-5-yl)methyl]-3-oxo-2-[4-(2,2,2-trifluoroethoxy)phenyl]-6,8-dihydro-5H-imidazo[1,5-a]pyrazine-1-carboxamide] had a pEC50 of 6.30 to 7.00.

`O=C(NCc1ccc(OC(F)(F)F)cc1F)c1c2n(c(=O)n1-c1ccc(OC3CC3)cc1)CCN(C(=O)c1ccc(Br)c(Cl)c1)C2` [Example 296, 7-(4-bromo-3-chloro-benzoyl)-2-[4-(cyclopropoxy)phenyl]-N-[[2-fluoro-4-(trifluoromethxoy)phenyl]methyl]-3-oxo-6,8-dihydro-5H-imidazo[1,5-a]pyrazine-1-carboxamide] had a pEC50 of 5.30 to 6.30.

In the case of `O=C(NCc1ccc(OC(F)F)cc1F)c1c2n(c(=O)n1-c1ccc(OC3CC3)cc1)CCN(C(=O)c1ccc(Br)c(Cl)c1)C2` [Example 297, 7-(4-bromo-3-chloro-benzoyl)-2-[4-(cyclopropoxy)phenyl]-N-[[4-(difluoromethoxy)-2-fluoro-phenyl]methyl]-3-oxo-6,8-dihydro-5H-imidazo[1,5-a]pyrazine-1-carboxamide], the pEC50 is 6.30 to 7.00.

`O=C(NCc1ccccc1)c1c2n(c(=O)n1-c1ccc3[nH]ncc3c1)CCN(C(=O)c1ccc(Br)c(Cl)c1)C2` [Example 298, N-benzyl-7-(4-bromo-3-chloro-benzoyl)-2-(1H-indazol-5-yl)-3-oxo-6,8-dihydro-5H-imidazo[1,5-a]pyrazine-1-carboxamide] gave a pEC50 of 5.30 to 6.30.

`NC(=O)COc1ccc(CNC(=O)c2c3n(c(=O)n2-c2ccc(OCC(F)(F)F)cc2)CCN(C(=O)c2ccc(Br)c(Cl)c2)C3)c(F)c1` [Example 303, N-[[4-(2-amino-2-oxo-ethoxy)-2-fluoro-phenyl]methyl]-7-(4-bromo-3-chloro-benzoyl)-3-oxo-2-[4-(2,2,2-trifluoroethoxy)phenyl]-6,8-dihydro-5H-imidazo[1,5-a]pyrazine-1-carboxamide] had a negative-log EC50 (pEC50) of 5.30 to 6.30.

As usually defined, the pEC50 is the EC50 on a negative log10 scale, so that one unit is a factor of ten. Low readings indicate a high EC50, high ones a low EC50.
